Data taken from patent EP1981504B1, “THIADIAZOLE DERIVATIVES FOR THE TREATMENT OF NEURO DEGENERATIVE DISEASES” (NV reMYND, priority 2006, dated 2007).
Values after ≈ are worked out from the molar mass of the structure shown.

How the values were obtained:
M17-SYNwt cells = assay: α-synuclein cytotoxicity assay (LDH leakage from paraquat-treated α-synuclein over-expressing neuroblastoma cells); type: cell-based, human; conditions: paraquat 32 mM, 40 hours, LDH release; for EC50: Homo sapiens, Neuroblastoma cell; for EC50 / EC50 (µg/mL): 10 point curves in duplicate; for %I: percent inhibition of synuclein cytotoxicity at most effective concentration of test compound, relative to untreated paraquat cells
How it was run: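 M17 neuroblastoma cells over-expressing wild-type α-synuclein were challenged with paraquat, and cytotoxicity was read as LDH release. Protection was expressed as percent reduction of paraquat-induced LDH release relative to untreated paraquat cells and control cells. Actives were retested in 10-point duplicate dose responses.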

[1] = tested on: dopaminergic substantia nigra neurons; assay: in vivo inhibition of paraquat-triggered loss of substantia nigra neurons (tyrosine hydroxylase immunohistochemistry); conditions: mice, paraquat intraperitoneal not higher than 8 mg/kg/day, compound not higher than 20 mg/kg body weight/day, 8 weeks treatment, versus vehicle
Experimental: In order to model neuronal loss in the substantia nigra region of the brain, mice were treated with paraquat (intraperitoneal) at a dose not higher than 8 mg/kg/day for a continuous period of 15-100 days. These mice were also chronically co-treated during that period with: • compound 60 (1-[4-methoxyphenylsulfonyl]-4-[3-(4-methylbenzyl)-1,2,4-thiadiazol-5-yl]-2-methylpiperazine), or • compound 32 (1-[4-methoxyphenylsulfonyl]-4-[3-(4-fluorobenzyl)-1,2,4-thiadiazol-5-yl]piperazine), or • compound 53 (1-[4-methoxyphenylsulfonyl]-4-[3-(3-methoxy-benzyl)-1,2,4-thiadiazol-5-yl]piperazine), each being administered at a dose not higher than 20 mg/kg body weight/day), or by vehicle only (no active compound). Mice treatment by means of vehicle or a compound of the invention started 2 days before administration of paraquat.
At the end of the treatment period, mice were sacrificed and the corresponding brains were used for immunohistochemical analysis. […] Using antibodies raised against tyrosin hydroxylase (anti-tyrosin hydroxylase), tyrosine hydroxylase containing neurons in the brains were detected.
Three groups of mice were treated with either paraquat and compound 53 (group 3; n=6), or paraquat and vehicle of compound 53 (group 2; n=4), or vehicle paraquat and vehicle of compound 53 (group 1; n=3). […] Per mouse, the median %TH-positive areas (of the substantia nigra regions) was determined. […]

With COc1ccc(S(=O)(=O)N2CCN(c3nc(Cc4cccc(OC)c4)ns3)CC2)cc1 [Compound 53, 1-[4-methoxyphenylsulfonyl]-4-[3-(3-methoxybenzyl)-1,2,4-thiadiazol-5-yl]piperazine] the EC50 (M17-SYNwt cells) was 0.66 ng/mL (≈ 0.00143 µM), the “%I” value (M17-SYNwt cells) was 83% and the “TH-positive area of the substantia nigra” value [1] was “protects dopaminergic substantia nigra neurons against paraquat-triggered degeneration”.
For COc1ccccc1S(=O)(=O)N1CCN(c2nc(Cc3ccc(F)cc3)ns2)CC1 [Compound 195, 1-[2-methoxyphenylsulfonyl]-4-[3-(4-fluoro-benzyl)-1,2,4-thiadiazol-5-yl]piperazine], the EC50 (M17-SYNwt cells) was 25 ng/mL (≈ 0.0557 µM) and the “%I” value (M17-SYNwt cells) was 99%.
For CCOc1ccc(S(=O)(=O)N2CCN(c3nc(Cc4ccc(F)cc4)ns3)CC2)cc1 [Compound 196, 1-[4-ethoxyphenylsulfonyl]-4-[3-(4-fluoro-benzyl)-1,2,4-thiadiazol-5-yl]piperazine], the EC50 (M17-SYNwt cells) was 8.1 ng/mL (≈ 0.0175 µM) and the “%I” value (M17-SYNwt cells) was 42%.
In the case of CCc1ccc(S(=O)(=O)N2CCN(c3nc(Cc4ccc(F)cc4)ns3)CC2)cc1 [Compound 197, 1-[4-ethylphenylsulfonyl]-4-[3-(4-fluoro-benzyl)-1,2,4-thiadiazol-5-yl]piperazine], the EC50 (M17-SYNwt cells) is reported as 239 ng/mL (≈ 0.535 µM) and the “%I” value (M17-SYNwt cells) is reported as 84%.
For O=S(=O)(c1ccccc1)N1CCN(c2nc(Cc3ccc(F)cc3)ns2)CC1 [Compound 198, 1-phenylsulfonyl-4-[3-(4-fluoro-benzyl)-1,2,4-thiadiazol-5-yl]piperazine], the EC50 (M17-SYNwt cells) was 146 ng/mL (≈ 0.349 µM) and the “%I” value (M17-SYNwt cells) was 25%.
COc1ccc(S(=O)(=O)N2CCN(c3nc(Cc4ccccc4)ns3)CC2)cc1 [Compound 199, 1-[4-methoxyphenylsulfonyl]-4-[3-benzyl-1,2,4-thiadiazol-5-yl]piperazine] was tested, and the EC50 (M17-SYNwt cells) was 1.6 ng/mL (≈ 0.00372 µM) and the “%I” value (M17-SYNwt cells) was 38%.
CCC(=O)Oc1ccc(S(=O)(=O)N2CCN(c3nc(Cc4ccc(F)cc4)ns3)CC2)cc1 [Compound 200, 1-(4-propionyloxy)benzene-sulfonyl-4-[3-(4-fluoro-benzyl)-1,2,4-thiadiazol-5-yl]piperazine] was tested, and the EC50 (M17-SYNwt cells) was 51 ng/mL (≈ 0.104 µM) and the “%I” value (M17-SYNwt cells) was 80%.
With COc1ccc(S(=O)(=O)N2CCN(c3nc(Cc4cccc(C)c4)ns3)CC2)cc1 [Compound 201] the EC50 (M17-SYNwt cells) was 2.1 ng/mL (≈ 0.00472 µM) and the “%I” value (M17-SYNwt cells) was 97%.
COc1ccc(S(=O)(=O)N2CCN(c3nc(Cc4ccccc4C)ns3)CC2)cc1 [Compound 202] was tested, and the EC50 (M17-SYNwt cells) was 7.5 ng/mL (≈ 0.0169 µM) and the “%I” value (M17-SYNwt cells) was 63%.
For COc1ccc(S(=O)(=O)N2CCN(c3nc(Cc4ccccc4OC)ns3)CC2)cc1 [Compound 203], the EC50 (M17-SYNwt cells) was 6.2 ng/mL (≈ 0.0135 µM) and the “%I” value (M17-SYNwt cells) was 61%.
In the case of COc1ccc(S(=O)(=O)N2CCN(c3nc(Cc4ccc(F)c(C)c4)ns3)CC2)cc1 [Compound 204], the EC50 (M17-SYNwt cells) is reported as 1 ng/mL (≈ 0.00216 µM) and the “%I” value (M17-SYNwt cells) is reported as 90%.
In the case of COc1ccc(Cc2nsc(N3CCN(S(=O)(=O)c4ccc(OC)cc4)CC3)n2)cc1 [Compound 205], the EC50 (M17-SYNwt cells) is reported as 1.1 ng/mL (≈ 0.00239 µM) and the “%I” value (M17-SYNwt cells) is reported as 53%.
COc1cccc(Cc2nsc(N3CCN(S(=O)(=O)c4ccc(Br)cc4)CC3)n2)c1 [Compound 207] was tested, and the EC50 (M17-SYNwt cells) was 28 ng/mL (≈ 0.055 µM) and the “%I” value (M17-SYNwt cells) was 83%.
For COc1ccc(S(=O)(=O)N2CCN(c3nc(Cc4cccc(OC)c4)ns3)CC2C)cc1 (stereo not shown) [Compound 208, 1-[4-methoxyphenylsulfonyl]-4-[3-(3-methoxybenzyl)-1,2,4-thia-diazol-5-yl]-2-methyl-piperazine], the EC50 (M17-SYNwt cells) was 3.4 ng/mL (≈ 0.00716 µM) and the “%I” value (M17-SYNwt cells) was 92%.
In the case of O=S(=O)(c1ccc(O)cc1)N1CCN(c2nc(Cc3ccc(F)cc3)ns2)CC1 [Compound 217, 1-(4-hydroxybenzenesulfonyl)-4-[3-(4-fluoro-benzyl)-1,2,4-thiadiazol-5-yl]piperazine], the “%I” value (M17-SYNwt cells) is reported as 77%.
In the case of “N-(2,6-dichlorophenyl)-4-[3-(4-fluorobenzyl)-1,2,4-thiadiazol-5-yl]-2-methylpiperazine-1-carboxamide [Compound 21]”, the “EC50 (µg/mL)” value (M17-SYNwt cells) is reported as 0,79 µg/mL and the “%I” value (M17-SYNwt cells) is reported as 70%.
With “N-(3-cyanophenyl)-4-[3-(4-fluorobenzyl)-1,2,4-thiadiazol-5-yl]-2-methylpiperazine-1-carboxamide [Compound 22]” the “EC50 (µg/mL)” value (M17-SYNwt cells) was 0,88 µg/mL and the “%I” value (M17-SYNwt cells) was 59%.
